Reference: patent publication US20060063720A1, “Oxaliplatin solution concentrate” (priority 2004, published 2006)

What was measured:
[1] = cited from earlier work
[2] = Solubility of oxaliplatin in aqueous carbohydrate solutions (saturated solution supernatant, HPLC; pH of saturated solution); conditions: for Oxaliplatin concentration of the saturated solution: pH not adjusted; for pH of the saturated solution: oxaliplatin-saturated

O=C1[O][Pt-2]2([NH2+]C3CCCC[C@H]3[NH2+]2)[O]C1=O (stereo partly drawn) [Oxaliplatin, cis-oxalato-(trans-1,2-cyclohexanediamine)-platinum(II)]
Stability in water ([1]; at least at concentrations below 1 mg/ml): not very stable | Solubility in ethanol ([1]; ethanol): practically insoluble | Solubility in methanol ([1]; methanol): scarcely soluble | Solubility in water ([1]; water): soluble | Oxaliplatin concentration of the saturated solution ([2]; 0% Glucose): 7.66 mg/mL | Oxaliplatin concentration of the saturated solution ([2]; 5% Glucose): 8.14 mg/mL | Oxaliplatin concentration of the saturated solution ([2]; 10% Glucose): 10.74 mg/mL | Oxaliplatin concentration of the saturated solution ([2]; 10% Lactose): 10.12 mg/mL | Oxaliplatin concentration of the saturated solution ([2]; 10% Trehalose): 10.32 mg/mL | Oxaliplatin concentration of the saturated solution ([2]; 20% Glucose): 11.85 mg/mL | Oxaliplatin concentration of the saturated solution ([2]; 25% Dextran 10): 10.90 mg/mL | Oxaliplatin concentration of the saturated solution ([2]; 25% Dextran 40): 10.85 mg/mL | Oxaliplatin concentration of the saturated solution ([2]; 25% Dextran 70): 10.90 mg/mL | Oxaliplatin concentration of the saturated solution ([2]; 25% Galactose): 11.53 mg/mL | Oxaliplatin concentration of the saturated solution ([2]; 30% Glucose): 12.66 mg/mL | Oxaliplatin concentration of the saturated solution ([2]; 40% Glucose): 13.54 mg/mL | Oxaliplatin concentration of the saturated solution ([2]; 50% Fructose): 12.56 mg/mL | Oxaliplatin concentration of the saturated solution ([2]; 50% Maltose): 17.83 mg/mL | solubility ([2]; aqueous solution, 25 °C, water): 7000 to 8000 µg/mL | solubility ([2]; aqueous solutions with solubilizers, aqueous with cosolvent or surfactant or cyclodextrin): > 7000 µg/mL | Oxaliplatin concentration obtained with adjuvants ([2]; glucose, maltose, fructose, galactose, dextran 10, 40, 70, polyethylene glycol 200, 300, 400 and 600 as adjuvants): more than 7 mg/ml solvent | pH of the saturated solution ([2]; 0% Glucose): pH 6.1 | pH of the saturated solution ([2]; 5% Glucose): pH 5.9 | pH of the saturated solution ([2]; 10% Glucose): pH 5.8 | pH of the saturated solution ([2]; 10% Lactose): pH 4.3 | pH of the saturated solution ([2]; 10% Trehalose): pH 4.6 | pH of the saturated solution ([2]; 20% Glucose): pH 5.7 | pH of the saturated solution ([2]; 25% Dextran 10): pH 4.8 | pH of the saturated solution ([2]; 25% Dextran 40): pH 4.2 | pH of the saturated solution ([2]; 25% Dextran 70): pH 4.1 | pH of the saturated solution ([2]; 25% Galactose): pH 6.3 | pH of the saturated solution ([2]; 30% Glucose): pH 5.6 | pH of the saturated solution ([2]; 40% Glucose): pH 5.6 | pH of the saturated solution ([2]; 50% Fructose): pH 4.7 | pH of the saturated solution ([2]; 50% Maltose): pH 3.7 | solubility ([2]; water): ~7500 µg/mL | Maximum concentration of oxaliplatin in water ([2]; with additional dissolved tonic, pH-adjusting, buffering or preserving adjuvants): 7 mg/mL
